Source: the supplement of paper PMC10627819

Legend:
S. aureus DSM 20231 [1] = test: fitness (endpoint OD595 vs no drug) (fraction); higher = more growth
In short: (§1)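 Cultures at OD595 0.01 were dispensed into 384-well plates in TSB, LB Lennox or CY and incubated at 37 °C. Every 30 min for 14 h, OD595 was read and corrected by the first reading. Fitness is the optical density at entry into stationary phase relative to the robust mean of no-drug control wells, capped at 1.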

S. aureus Newman [2] = test: as above
In short: as §1

S. pneumoniae D39V [3] = test: as above
In short: as §1

B. subtilis 168 = test: Bliss interaction score (quartile over a dose matrix) (fitness difference); higher = more antagonism (negative = synergy)
In short: (§2)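 Combination data were used to infer fitness under each single drug. Fitness is the OD595 at entry into stationary phase divided by the robust mean of the plate's no-drug wells, with a cap of 1. The Bliss score is the observed minus the expected product fitness, summarised by quartiles over technical, biological and donor/recipient replicates.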

S. aureus DSM 20231 [4] = test: as above
In short: as §2

S. aureus Newman [5] = test: as above
In short: as §2

S. pneumoniae D39V [6] = test: as above
In short: as §2
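Wherever Bliss interaction score (quartile over a dose matrix) is given: first quartile when negative (synergy) and third quartile when positive (antagonism).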

Cn1c2cccc(=O)c-2nc2ccccc21 [Pyocyanin] + Cn1nnc(-c2ccc(-c3ccc(N4C[C@H](CO)OC4=O)cc3F)cn2)n1 [Tedizolid]
fitness
Conditions	partner 0.03125 µg/mL	partner 0.0625 µg/mL	partner 0.125 µg/mL	partner 0.25 µg/mL
S. aureus DSM 20231 [1], first compound 1.25 µg/mL	–	0.813	0.739	0.218
S. aureus DSM 20231 [1], first compound 2.5 µg/mL	–	0.8	0.701	0.242
S. aureus DSM 20231 [1], first compound 5 µg/mL	–	0.635	0.565	0.169
S. aureus Newman [2], first compound 1.25 µg/mL	–	0.853	0.789	–
S. aureus Newman [2], first compound 2.5 µg/mL	–	0.764	0.651	–
S. aureus Newman [2], first compound 5 µg/mL	–	–	0.248	0.161
S. pneumoniae D39V [3], first compound 0.325 µg/mL	0.976	0.978	0.798	–
S. pneumoniae D39V [3], first compound 0.65 µg/mL	0.97	0.952	0.844	–
S. pneumoniae D39V [3], first compound 1.3 µg/mL	0.753	0.731	0.652	–

fitness, S. pneumoniae D39V [3], one replicate
Conditions	first compound 0.325 µg/mL	first compound 0.65 µg/mL
partner 0.25 µg/mL	0.736	0.821
partner 0.5 µg/mL	0.344	0.545

Conditions	Bliss interaction score
B. subtilis 168	0.0439
S. aureus DSM 20231 [4]	0.0928
S. aureus Newman [5]	-0.065
S. pneumoniae D39V [6]	-0.0686

Cc1onc(-c2ccccc2)c1C(=O)N[C@@H]1C(=O)N2[C@@H]1SC(C)(C)[C@@H]2C(=O)O [Oxacillin] + CN[C@H](CC(C)C)C(=O)N[C@H]1C(=O)N[C@@H](CC(N)=O)C(=O)N[C@H]2C(=O)N[C@H]3C(=O)N[C@H](C(=O)N[C@H](C(=O)O)c4cc(O)cc(O)c4-c4cc3ccc4O)[C@H](O)c3ccc(c(Cl)c3)Oc3cc2cc(c3O[C@@H]2O[C@H](CO)[C@@H](O)[C@H](O)[C@H]2O[C@H]2C[C@](C)(N)[C@H](O)[C@H](C)O2)Oc2ccc(cc2Cl)[C@H]1O [Vancomycin]
Conditions	fitness
S. aureus DSM 20231 [1], first compound 0.0156 µg/mL, partner 0.1875 µg/mL	0.776
S. aureus DSM 20231 [1], first compound 0.0156 µg/mL, partner 0.375 µg/mL	0.867
S. aureus DSM 20231 [1], first compound 0.0156 µg/mL, partner 0.75 µg/mL	0.81
S. aureus DSM 20231 [1], first compound 0.0312 µg/mL, partner 0.1875 µg/mL	0.641
S. aureus DSM 20231 [1], first compound 0.0312 µg/mL, partner 0.375 µg/mL	0.73
S. aureus DSM 20231 [1], first compound 0.0312 µg/mL, partner 0.75 µg/mL	0.679
S. aureus DSM 20231 [1], first compound 0.0625 µg/mL, partner 0.1875 µg/mL	0.519
S. aureus DSM 20231 [1], first compound 0.0625 µg/mL, partner 0.375 µg/mL	0.516
S. aureus DSM 20231 [1], first compound 0.0625 µg/mL, partner 0.75 µg/mL	0.564
S. aureus Newman [2], first compound 0.0156 µg/mL, partner 0.1875 µg/mL	0.785
S. aureus Newman [2], first compound 0.0156 µg/mL, partner 0.375 µg/mL	0.756
S. aureus Newman [2], first compound 0.0312 µg/mL, partner 0.1875 µg/mL	0.715
S. aureus Newman [2], first compound 0.0312 µg/mL, partner 0.375 µg/mL	0.724
S. aureus Newman [2], first compound 0.0312 µg/mL, partner 0.75 µg/mL	0.712
S. aureus Newman [2], first compound 0.0625 µg/mL, partner 0.1875 µg/mL	0.652
S. aureus Newman [2], first compound 0.0625 µg/mL, partner 0.375 µg/mL	0.637
S. pneumoniae D39V [3], first compound 0.01 µg/mL, partner 0.03125 µg/mL	0.988
S. pneumoniae D39V [3], first compound 0.01 µg/mL, partner 0.0625 µg/mL	0.906
S. pneumoniae D39V [3], first compound 0.01 µg/mL, partner 0.25 µg/mL	0.243
S. pneumoniae D39V [3], first compound 0.01 µg/mL, partner 0.5 µg/mL	0.0401
S. pneumoniae D39V [3], first compound 0.02 µg/mL, partner 0.03125 µg/mL	0.859
S. pneumoniae D39V [3], first compound 0.02 µg/mL, partner 0.0625 µg/mL	0.734
S. pneumoniae D39V [3], first compound 0.02 µg/mL, partner 0.25 µg/mL	0.149
S. pneumoniae D39V [3], first compound 0.02 µg/mL, partner 0.5 µg/mL	0.0421
S. pneumoniae D39V [3], first compound 0.04 µg/mL, partner 0.03125 µg/mL	0.271
S. pneumoniae D39V [3], first compound 0.04 µg/mL, partner 0.0625 µg/mL	0.18
S. pneumoniae D39V [3], first compound 0.04 µg/mL, partner 0.125 µg/mL	0.108
S. pneumoniae D39V [3], first compound 0.04 µg/mL, partner 0.25 µg/mL	0.101
S. pneumoniae D39V [3], first compound 0.04 µg/mL, partner 0.5 µg/mL	0.056

Conditions	Bliss interaction score
B. subtilis 168	-0.0574
S. aureus DSM 20231 [4]	-0.0751
S. aureus Newman [5]	-0.0696
S. pneumoniae D39V [6]	-0.302

C[n+]1ccc(-c2cc[n+](C)cc2)cc1 [Paraquat] + Cn1nnc(-c2ccc(-c3ccc(N4C[C@H](CO)OC4=O)cc3F)cn2)n1 [Tedizolid]
fitness
Conditions	partner 0.03125 µg/mL	partner 0.0625 µg/mL	partner 0.125 µg/mL	partner 0.25 µg/mL
S. aureus DSM 20231 [1], first compound 1.25 µg/mL	–	0.866	0.644	0.117
S. aureus DSM 20231 [1], first compound 2.5 µg/mL	–	0.803	0.583	0.161
S. aureus DSM 20231 [1], first compound 5 µg/mL	–	0.836	0.588	0.137
S. aureus Newman [2], first compound 1.25 µg/mL	–	0.855	0.762	–
S. aureus Newman [2], first compound 2.5 µg/mL	–	0.902	0.805	–
S. aureus Newman [2], first compound 5 µg/mL	–	0.843	–	–
S. pneumoniae D39V [3], first compound 1.5 µg/mL	0.926	0.948	0.86	–
S. pneumoniae D39V [3], first compound 3 µg/mL	0.956	0.951	0.846	–
S. pneumoniae D39V [3], first compound 6 µg/mL	0.932	0.934	0.817	–

fitness, S. pneumoniae D39V [3], one replicate
Conditions	first compound 1.5 µg/mL	first compound 3 µg/mL	first compound 6 µg/mL
partner 0.25 µg/mL	0.796	0.786	0.808
partner 0.5 µg/mL	0.626	0.603	0.602

Conditions	Bliss interaction score
B. subtilis 168	0.075
S. aureus DSM 20231 [4]	0.0784
S. aureus Newman [5]	-0.041
S. pneumoniae D39V [6]	-0.0684
